# Source: patent US7880007B2, “Bicyclic substituted phenyl piperidine modulators of muscarinic receptors” (Vertex Pharmaceuticals Incorporated, priority 2004, dated 2011)
# How the values were obtained:
# Type in all cases: cell-based
# [1] = molecular target: T1, M2 muscarinic receptor (Homo sapiens, UniProt P08172); experiment: Functional mobilization of intracellular calcium (FLIPR), M2-CHO cells; conditions: for Emax: 100% efficacy = maximum response obtained with the Carbachol control; for M2 Activity: M2-CHO cells, calcium mobilization (FLIPR)
# T1 construct: expressed in transfected cells; host or cells: CHO (M2-CHO)
# T1 sequence (P08172 1-466): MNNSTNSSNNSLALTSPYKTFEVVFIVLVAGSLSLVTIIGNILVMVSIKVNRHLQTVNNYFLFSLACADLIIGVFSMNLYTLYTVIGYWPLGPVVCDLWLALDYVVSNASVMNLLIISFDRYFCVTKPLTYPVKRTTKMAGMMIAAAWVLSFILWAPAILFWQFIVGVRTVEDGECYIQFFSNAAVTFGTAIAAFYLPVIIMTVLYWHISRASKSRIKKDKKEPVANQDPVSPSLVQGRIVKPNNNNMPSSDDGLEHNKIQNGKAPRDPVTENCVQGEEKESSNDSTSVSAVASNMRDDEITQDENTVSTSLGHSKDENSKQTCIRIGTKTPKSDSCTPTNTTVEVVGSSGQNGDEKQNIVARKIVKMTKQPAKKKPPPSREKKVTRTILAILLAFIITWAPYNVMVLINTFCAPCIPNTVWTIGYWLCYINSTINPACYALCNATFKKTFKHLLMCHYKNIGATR
# Protocol: (§1) Functional Mobilization of Intracellular Calcium to Determine Muscarinic Receptor Activity:
# (§2) CHO cells expressing muscarinic receptors (M1 to M5) are grown as monolayers in tissue culture flasks at 37° C. in a humidified atmosphere containing 5% CO2 and passaged every 3-5 days. The growth media is Dulbecco's modified eagles medium (DMEM, Gibco Cat #12430-054), containing 25 mM Hepes and supplemented with Fetal Bovine Serum (Hyclone, cat #SH30071.03), 0.1 mM of MEM non-essential amino acids (GIBCO, Cat #11140-050), 1 mM MEM Sodium Pyruvate (GIBCO Cat #11360-070) and 100 units/ml of Penicillin G and 100 μg/ml of Streptomycin (GIBCO Cat #15140-122). The recombinant muscarinic receptor cell lines are grown under antibiotic pressure with media containing 25 μg/ml zeocin and 500 μg/ml G418 (M1-CHO), 4 μg/ml puromycin, 50 μg/ml zeocin and 2.5 μg/ml blasticidin (M2 and M4-CHO) or 50 μg/ml zeocin and 4 μg/ml puromycin (M3 and M5-CHO).
# (§3) Cells are harvested at 80-90% confluence using Versene (GIBCO Cat #15040-066), collected by centrifugation and seeded 18-24 hrs prior to running the calcium assay at a density of 5,000-10,000 cells/well in […], clear-bottomed 384-well plates (BD Biocoat, poly-D-lysine, Cat #356663). The day of the experiment, the cells are washed with a plate washer (Bioteck Instruments, ELX 405) using bath 1 buffer (140-mM NaCl, 4.5-mM KCl, 2-mM CaCl2, 1-mM MgCl2, 10-mM Hepes-Na, 10-mM Glucose, pH 7.4, with NaOH) containing 1 mM Probenecid. Next, the calcium dye Fluo-3 (25 μl/well of Fluo-3 AM at 4 μM, Molecular Probes F-1241, in Bath 1 buffer containing 1 mM Probenecid) is added to the 25 μl of Bath 1 remaining in each well after the plate wash and the dye is loaded at 37° C. in the tissue culture incubator for 60-90 min. The fluorescent dye is removed using the plate washer with Bath 1 containing 1 mM Probenecid, leaving 25 μl/well of this solution after the wash. Alternatively, cells can be loaded with the calcium indicator from Molecular Devices (Calcium 3 Assay Reagents, Cat #R7181) adding 5 μl of a 5× solution dye in Bath 1 containing 1 mM Probenecid (10 ml per dye flask cat #R7182 to generate a solution 20×) to 20 μl of the same buffer. After loading for 60 min, the experiment can be run without having to remove the dye.
# (§4) Compounds are prepared at a 2× fold concentration in a 96-well plate (round bottom, Costar Corning cat #3656), by reconstituting the pre-spotted compounds in bath 1 containing 1 mM probenecid. The final concentration DMSO is 0.5%, and the amount of DMSO is normalized across the assay plate. To determine an agonist action of the compounds on muscarinic receptors, the reconstituted compounds are added (25 μl compound/well) to the cell assay plate (containing 25 μl/well) using the multi-channel robotic system of the FLIPR 3 Instrument (Molecular Devices, Sunnyvale, Calif.). To determine a functional inhibitory action of the compounds on muscarinic receptors, the reconstituted compounds are added (25 μl compound/well) to the assay plate and pre-incubated for 15 min prior to adding 25 μl of Carbachol at 3× the EC80 for each muscarinic subtype. Alternatively, the compounds can be co-applied simultaneously with the agonist. In both assay modes, the fluorescence is recorded for 60 sec (excitation wavelength is […] and emission wavelength 540 nm) using the FLIPR 3 instrument.
# (§5) The potency, efficacy and selectivity of the muscarinic compounds were evaluated by screening the compound activity across the whole family (M1 to M5 cells). Compounds were also screened for activity on other proteins such as other GPCRs and ion channels to determine selectivity on M4 receptors.
# (§6) Examples of activities and efficacies of the muscarinic compounds of formulae (I, Ia, Ib, and II) on modulating M1, M2, M3 and M4 receptors are shown below in Table 3. […]
# [2] = molecular target: T2, M1 muscarinic receptor (Homo sapiens, UniProt P11229); experiment: Functional mobilization of intracellular calcium (FLIPR), M1-CHO cells; conditions: for Emax: 100% efficacy = maximum response obtained with the Carbachol control; for M1 Activity: M1-CHO cells, calcium mobilization (FLIPR)
# T2 construct: expressed in transfected cells; host or cells: CHO (M1-CHO)
# T2 sequence (P11229 1-460): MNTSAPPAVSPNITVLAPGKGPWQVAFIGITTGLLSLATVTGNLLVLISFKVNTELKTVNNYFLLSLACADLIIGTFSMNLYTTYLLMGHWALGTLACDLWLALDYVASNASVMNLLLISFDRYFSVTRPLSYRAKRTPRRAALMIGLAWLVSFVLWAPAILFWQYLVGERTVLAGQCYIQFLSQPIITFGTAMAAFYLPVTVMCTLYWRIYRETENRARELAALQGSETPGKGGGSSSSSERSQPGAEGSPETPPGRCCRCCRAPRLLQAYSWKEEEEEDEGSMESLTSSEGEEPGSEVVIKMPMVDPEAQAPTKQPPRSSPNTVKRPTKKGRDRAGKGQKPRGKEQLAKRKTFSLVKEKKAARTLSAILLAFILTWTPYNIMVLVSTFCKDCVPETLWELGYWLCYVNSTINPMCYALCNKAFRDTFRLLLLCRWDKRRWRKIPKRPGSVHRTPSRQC
# Protocol: as §1, §2, §3, §4, §5, §6
# [3] = molecular target: T3, M4 muscarinic receptor (Homo sapiens, UniProt P08173); experiment: Functional mobilization of intracellular calcium (FLIPR), M4-CHO cells; conditions: for Emax: 100% efficacy = maximum response obtained with the Carbachol control; for M4 Activity: M4-CHO cells, calcium mobilization (FLIPR)
# T3 construct: expressed in transfected cells; host or cells: CHO (M4-CHO)
# T3 sequence (P08173 1-479): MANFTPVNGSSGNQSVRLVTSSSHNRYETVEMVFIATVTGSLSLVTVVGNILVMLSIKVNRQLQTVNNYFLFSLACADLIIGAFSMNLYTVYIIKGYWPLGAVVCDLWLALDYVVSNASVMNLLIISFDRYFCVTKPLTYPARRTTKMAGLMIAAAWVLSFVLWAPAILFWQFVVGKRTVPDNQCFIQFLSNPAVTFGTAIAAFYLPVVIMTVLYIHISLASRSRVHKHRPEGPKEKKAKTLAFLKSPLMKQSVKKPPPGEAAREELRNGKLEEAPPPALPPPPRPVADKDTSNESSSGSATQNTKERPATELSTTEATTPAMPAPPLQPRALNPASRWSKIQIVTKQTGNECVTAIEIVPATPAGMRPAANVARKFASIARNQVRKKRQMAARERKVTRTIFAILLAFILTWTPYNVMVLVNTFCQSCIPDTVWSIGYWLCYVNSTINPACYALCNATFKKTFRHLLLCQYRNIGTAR
# Protocol: as §1, §2, §3, §4, §5, §6
Compound,Emax [1],M2 Activity [1],Emax [2],M1 Activity [2],Emax [3],M4 Activity [3]
CCOC(=O)N1C2CCC1CC(CN1CCC(c3ccccc3OC)CC1)C2 (stereo not drawn) [Compound 20],< 25%,+ (activity was measured to be greater than 5.0 μM),25 to 100%,+++ (activity was measured to be less than 1.0 μM),25 to 100%,+++ (activity was measured to be less than 1.0 μM)
COc1ccccc1C1CCN(CC2CC3CCC(C3)C2)CC1 (stereo not drawn) [Compound 28],< 25%,+ (activity was measured to be greater than 5.0 μM),< 25%,+ (activity was measured to be greater than 5.0 μM),< 25%,+ (activity was measured to be greater than 5.0 μM)
CCOC(=O)N1CCC(N2CCC(OC)(c3cc(Cl)ccc3OC)CC2)CC1 [Compound 55],< 25%,+ (activity was measured to be greater than 5.0 μM),25 to 100%,+++ (activity was measured to be less than 1.0 μM),25 to 100%,+++ (activity was measured to be less than 1.0 μM)
COc1ccccc1C1CCN(CC2CCC3CCC2C3)CC1 (stereo not drawn) [Compound 61],< 25%,+ (activity was measured to be greater than 5.0 μM),< 25%,+ (activity was measured to be greater than 5.0 μM),25 to 100%,++ (activity was measured to be from 1.0 μM to 5.0 μM)
COc1ccc(Cl)cc1C1(O)CCN(C2CC3CCC2C3)CC1 (stereo not drawn) [Compound 63],< 25%,+ (activity was measured to be greater than 5.0 μM),< 25%,+ (activity was measured to be greater than 5.0 μM),25 to 100%,+ (activity was measured to be greater than 5.0 μM)
COc1ccc(NC(C)=O)cc1C1CCN(C2C[C@H]3CC[C@H](C2)C3)CC1 (stereo partly drawn) [Compound 75],< 25%,+ (activity was measured to be greater than 5.0 μM),< 25%,+ (activity was measured to be greater than 5.0 μM),25 to 100%,++ (activity was measured to be from 1.0 μM to 5.0 μM)
COc1ccc(Cl)cc1C1(OC)CCN(C2CCC3CCC2C3)CC1 (stereo not drawn) [Compound 80],< 25%,++ (activity was measured to be from 1.0 μM to 5.0 μM),25 to 100%,++ (activity was measured to be from 1.0 μM to 5.0 μM),25 to 100%,+++ (activity was measured to be less than 1.0 μM)
Cc1ccc(F)cc1C1CCN([C@H]2CC[C@H]3CC[C@H]2C3)CC1 [Compound 81],25 to 100%,+ (activity was measured to be greater than 5.0 μM),25 to 100%,+ (activity was measured to be greater than 5.0 μM),25 to 100%,++ (activity was measured to be from 1.0 μM to 5.0 μM)
COc1ccc(Cl)cc1C1CCN(CC2CCCCC2)CC1 [Compound 91],< 25%,+ (activity was measured to be greater than 5.0 μM),< 25%,++ (activity was measured to be from 1.0 μM to 5.0 μM),25 to 100%,++ (activity was measured to be from 1.0 μM to 5.0 μM)
CCOC(=O)N1C2CCC1CC(N1CCC(O)(c3cc(F)ccc3C)CC1)C2 (stereo not drawn) [Compound 95],< 25%,+ (activity was measured to be greater than 5.0 μM),25 to 100%,+++ (activity was measured to be less than 1.0 μM),25 to 100%,+++ (activity was measured to be less than 1.0 μM)
Cc1ccc(Cl)cc1C1CCN(C2CC[C@H]3CC[C@H]2C3)CC1 (stereo partly drawn) [Compound 96],25 to 100%,++ (activity was measured to be from 1.0 μM to 5.0 μM),25 to 100%,+++ (activity was measured to be less than 1.0 μM),25 to 100%,+++ (activity was measured to be less than 1.0 μM)
COc1ccc(Cl)cc1C1(O)CCN(C2CCCCC2)CC1 [Compound 99],< 25%,+ (activity was measured to be greater than 5.0 μM),< 25%,+ (activity was measured to be greater than 5.0 μM),25 to 100%,++ (activity was measured to be from 1.0 μM to 5.0 μM)
COc1ccc(Cl)cc1C1(OC)CCN(C2CCCCCC2)CC1 [Compound 101],< 25%,+ (activity was measured to be greater than 5.0 μM),25 to 100%,++ (activity was measured to be from 1.0 μM to 5.0 μM),25 to 100%,+++ (activity was measured to be less than 1.0 μM)
